# Source: publication PMC3523469 (Investigational New Drugs, 2012)
# Like-named read-outs stand apart in the source and are kept apart here.
# Format: in vivo, Japanese patients
# Settings: 15 mg QD (n = 3)
structure (smiles),measurement,setting,value
"COc1cc2ncnc(Nc3ccc(F)c(Cl)c3)c2cc1NC(=O)/C=C/CN1CCCCC1 [dacomitinib, Dacomitinib]","Alanine aminotransferase increased, number of patients with treatment-related AE",All,0
same,"Aspartate aminotransferase increased, number of patients with treatment-related AE",All,0
same,"Blood bilirubin increased, number of patients with treatment-related AE",All,0
same,"Cheilitis, number of patients with treatment-related AE",All,2
same,"Conjunctivitis, number of patients with treatment-related AE",All,0
same,"Decreased appetite, number of patients with treatment-related AE",All,0
same,"Diarrhea, number of patients with treatment-related AE",All,2
same,"Dry skin, number of patients with treatment-related AE",All,2
same,"ECG QT prolonged, number of patients with treatment-related AE",All,2
same,"Edema, number of patients with treatment-related AE",All,0
same,"Fatigue, number of patients with treatment-related AE",All,0
same,"Hematuria, number of patients with treatment-related AE",All,0
same,"Hypertrichosis, number of patients with treatment-related AE",All,0
same,"Leukopenia, number of patients with treatment-related AE",All,0
same,"Nausea, number of patients with treatment-related AE",All,0
same,"Palmar–plantar erythrodysesthesia, number of patients with treatment-related AE",All,1
same,"Paronychia, number of patients with treatment-related AE",All,1
same,"Proteinuria, number of patients with treatment-related AE",All,0
same,"Rash, number of patients with treatment-related AE",All,3
same,"Skin fissures, number of patients with treatment-related AE",All,0
same,"Stomatitis, number of patients with treatment-related AE",All,1
same,"Weight decreased, number of patients with treatment-related AE",All,0
same,"Alanine aminotransferase increased, number of patients with treatment-related AE",G1,0
same,"Aspartate aminotransferase increased, number of patients with treatment-related AE",G1,0
same,"Blood bilirubin increased, number of patients with treatment-related AE",G1,0
same,"Cheilitis, number of patients with treatment-related AE",G1,2
same,"Conjunctivitis, number of patients with treatment-related AE",G1,0
same,"Decreased appetite, number of patients with treatment-related AE",G1,0
same,"Diarrhea, number of patients with treatment-related AE",G1,2
same,"Dry skin, number of patients with treatment-related AE",G1,1
same,"ECG QT prolonged, number of patients with treatment-related AE",G1,1
same,"Edema, number of patients with treatment-related AE",G1,0
same,"Fatigue, number of patients with treatment-related AE",G1,0
same,"Hematuria, number of patients with treatment-related AE",G1,0
same,"Hypertrichosis, number of patients with treatment-related AE",G1,0
same,"Leukopenia, number of patients with treatment-related AE",G1,0
same,"Nausea, number of patients with treatment-related AE",G1,0
same,"Palmar–plantar erythrodysesthesia, number of patients with treatment-related AE",G1,1
same,"Paronychia, number of patients with treatment-related AE",G1,0
same,"Proteinuria, number of patients with treatment-related AE",G1,0
same,"Rash, number of patients with treatment-related AE",G1,2
same,"Skin fissures, number of patients with treatment-related AE",G1,0
same,"Stomatitis, number of patients with treatment-related AE",G1,1
same,"Weight decreased, number of patients with treatment-related AE",G1,0
same,"Alanine aminotransferase increased, number of patients with treatment-related AE",G2,0
same,"Aspartate aminotransferase increased, number of patients with treatment-related AE",G2,0
same,"Blood bilirubin increased, number of patients with treatment-related AE",G2,0
same,"Cheilitis, number of patients with treatment-related AE",G2,0
same,"Conjunctivitis, number of patients with treatment-related AE",G2,0
same,"Decreased appetite, number of patients with treatment-related AE",G2,0
same,"Diarrhea, number of patients with treatment-related AE",G2,0
same,"Dry skin, number of patients with treatment-related AE",G2,1
same,"ECG QT prolonged, number of patients with treatment-related AE",G2,1
same,"Edema, number of patients with treatment-related AE",G2,0
same,"Fatigue, number of patients with treatment-related AE",G2,0
same,"Hematuria, number of patients with treatment-related AE",G2,0
same,"Hypertrichosis, number of patients with treatment-related AE",G2,0
same,"Leukopenia, number of patients with treatment-related AE",G2,0
same,"Nausea, number of patients with treatment-related AE",G2,0
same,"Palmar–plantar erythrodysesthesia, number of patients with treatment-related AE",G2,0
same,"Paronychia, number of patients with treatment-related AE",G2,1
same,"Proteinuria, number of patients with treatment-related AE",G2,0
same,"Rash, number of patients with treatment-related AE",G2,1
same,"Skin fissures, number of patients with treatment-related AE",G2,0
same,"Stomatitis, number of patients with treatment-related AE",G2,0
same,"Weight decreased, number of patients with treatment-related AE",G2,0
same,"Alanine aminotransferase increased, number of patients with treatment-related AE",G3,0
same,"Aspartate aminotransferase increased, number of patients with treatment-related AE",G3,0
same,"Blood bilirubin increased, number of patients with treatment-related AE",G3,0
same,"Cheilitis, number of patients with treatment-related AE",G3,0
same,"Conjunctivitis, number of patients with treatment-related AE",G3,0
same,"Decreased appetite, number of patients with treatment-related AE",G3,0
same,"Diarrhea, number of patients with treatment-related AE",G3,0
same,"Dry skin, number of patients with treatment-related AE",G3,0
same,"ECG QT prolonged, number of patients with treatment-related AE",G3,0
same,"Edema, number of patients with treatment-related AE",G3,0
same,"Fatigue, number of patients with treatment-related AE",G3,0
same,"Hematuria, number of patients with treatment-related AE",G3,0
same,"Hypertrichosis, number of patients with treatment-related AE",G3,0
same,"Leukopenia, number of patients with treatment-related AE",G3,0
